This experiment relates to A2780_luc tumors. The experiment can be described thus: 3rd in vivo study: A2780_luc orthotopic xenograft model. Details: species or system female Balb/c nude mice. The conditions noted are these: vehicle 13 days; Kaplan-Meier, log-rank test. On the procedure:
FIG. 14: The Kaplan-Meier survival curve of female nude mice implanted […] with A2780_luc tumors. N=8 for both groups initially. Statistical analysis was carried out using log-rank (Mantel-Cox) test.
All in vivo studies were performed using female Balb/c nude mice at age 5-8 weeks. Animals were imaged using an In Vivo Imaging System (IVIS, Newton 7.0, Vilber).
A2780_luc or A2780-cis_luc cells were orthotopically implanted into both ovaries of mice. 5 days after implant mice were imaged using IVIS and those with most similar bioluminescent intensity values were assigned to the following treatment groups: […]

`N.N.[Cl][Pt][Cl]` [cisplatin, Cisplatin] displayed a median survival of 14.5 days.

The record behind these values is patent US20260207519A1, “ISOLATED TARGETED DELIVERY SYSTEM FOR THE TREATMENT OF OVARIAN CANCER” (CELLIS SP. Z O.O. [LTD.], priority 2022, published 2026).
